This test can be described thus: Organoleptic test of the compounds against sucrose. Format: in vivo. The arrangement: key: 3: sweeter than the control solution; 2: sweetness comparable with the control solution; 1: less sweet than the control solution but still sweet. Particulars: 0.4 mg/ml (400 ppm) in non-carbonated mineral water vs sucrose 20 g/l; panel of 3-4 panelists. The procedure: The isolated pure compound was dissolved in non-carbonated mineral water (“Evian”) in a concentration of 0.4 mg/ml (400 ppm). The sweet taste of each sample was compared by a panel of 3-4 panelists with a solution of sucrose in a concentration of 20 g/I.

The molecule “11-Oxoisomogroside V [11-Isomogroside V]” showed a Sweetness of 3. With `C[C@H](CC[C@@H](O[C@@H]1O[C@H](CO[C@@H]2O[C@H](CO)[C@@H](O)[C@H](O)[C@H]2O)[C@@H](O)[C@H](O)[C@H]1O[C@@H]1O[C@H](CO)[C@@H](O)[C@H](O)[C@H]1O)C(C)(C)O)[C@H]1CC[C@@]2(C)[C@@H]3CC=C4C(CC[C@H](O[C@@H]5O[C@H](CO[C@@H]6O[C@H](CO[C@@H]7O[C@H](CO)[C@@H](O)[C@H](O)[C@H]7O)[C@@H](O)[C@H](O)[C@H]6O)[C@@H](O)[C@H](O)[C@H]5O)C4(C)C)[C@]3(C)[C@H](O)C[C@]12C` (some centres unmarked) [Mogroside Via] the figure was 3.

The values above are taken from US20230142789A1, “A SWEETENER OR SWEETNESS ENHANCER COMPOSITION” (ANALYTICON DISCOVERY GMBH, priority 2020, published 2023).
